The values that follow come from patent US11440906B2, “Biguanide derivatives and their rearrangement products for use in the treatment of cancer” (CENTRE NATIONAL DE LA RECHERCHE SCIENTIFIQUE, priority 2017, dated 2022).

Like-named read-outs stand apart in the source and are kept apart here.

The subject of the test is A375 Sensitive cells. The experiment in a line: Viability test, trypan blue exclusion, A375 Sensitive cells. The following applies: Homo sapiens, A-375, viable cells as percentage of DMSO control. The class given is cell-based, human. The text has this: Different melanoma cell lines were purchased from the American Tissue Culture Collection: A375 and WM9 cells are mutated on B-Raf, CDKN2A and PTEN proteins; SKmel28 cells are mutated on B-Raf and P53 proteins; 1205Lu cells are mutated on B-Raf and PTEN proteins; G-361 cells are mutated on B-Raf and CDKN2A proteins; C8161 cells are mutated on B-Raf and K-Ras proteins; WM3912 cells are mutated on B-Raf and CDKN2A proteins; MeWo cells are mutated on P53 and CDKN2A proteins; WM3918 presents no mutations on characteristic proteins.
For trypan blue staining, […] of cells (melanoma and normal human cells) were aseptically transferred to a 1.5 mL clear Eppendorf tube and incubated for 3 min at room temperature with an equal volume of 0.4% trypan blue solution. Viable cells were counted and the results are expressed as the percentage of the value of control cells. All the experiments are performed 3 times in triplicate.
A375 Sensitive cells were treated with different concentrations of the synthesized molecules (5.0 μM or 10 μM) for different times (24 hr or 48 hr) or with DMSO (Control) for 12 or 48 hr. At the end of the stimulation, viable cells were counted using the trypan blue dye exclusion method. The results are normalized as percentages compare to the control.
A375 Sensitive cells were treated with 5 μM of CRO15 for different times (2 hr, 4 hr, 6 hr, 8 hr, 12 hr, 24 hr or 48 hr) or with 5 μM of PLX4032 (B-Raf inhibitor) for 48 hr or with DMSO (Control) for 48 hr. At the end of stimulation, viable cells were counted using the trypan blue dye exclusion method. The results are normalized as percentages compare to the control and data means±SEM of three independent experiments performed in triplicate *p<0.05; **p<0.01; ***p<0.001.
A375 Sensitive cells were treated with different concentrations of CRO15 (0.5 μM, 2.5 μM, 5.0 μM, 7.5 μM, 50 μM) for 48 hr or with 5 μM of PLX4032 (B-Raf inhibitor) for 48 hr or with DMSO (Control) for 48 hr. At the end of the stimulation, viable cells were counted using the trypan blue dye exclusion method. The results are normalized as percentages compare to the control and data means±SEM of three independent experiments performed in triplicate *p<0.05; **p<0.01; ***p<0.001.
A375 sensitive and resistant melanoma cells were treated with 5 μM of CRO15 for 48 hr or with 5 μM of PLX4032 for 48 hr or with DMSO (Control). At 48 hours, viable cells were counted using the trypan blue dye exclusion method. The results are normalized as percentages compare to the control and data means±SEM of three independent experiments performed in triplicate *p<0.05; **p<0.01; ***p<0.001.

The mark [1] stands for this setting: 24 h, read-out: Viab A375 5 μM/ 24 h.
Setting [2] is: 48 h, read-out: Viab A375 5 μM/ 48 h.
[3] abbreviates: 24 h, read-out: Viab A375 10 μM/ 24 h.
Where [4] appears, read: 48 h, read-out: Viab A375 10 μM/ 48 h.

As to `Cc1nc(NC(=N)NC(=N)c2ccncc2)sc1C` [MTF 299, N—(N-(4,5-dimethylthiazol-2-yl)carbamimidoyl)isonicotinimidamide], the viability at 5 µM was 91.1% under setting [1] and 76.6% under setting [2]. For the same compound, the viability at 10 µM reads like this: under setting [3], 72.8%; under setting [4], 46.2%.
In the case of `N=C(NC(=N)c1ccc(I)cc1)Nc1nc2ccccc2s1` [MTF 247, N—(N-(benzo[d]thiazol-2-yl)carbamimidoyl)-4-iodobenzimidamide], the viability at 5 µM turned out to be 100% under setting [1] and 135% under setting [2]. Also, the viability at 10 µM under setting [3] was determined as 122% and the viability at 10 µM under setting [4] is 100%.
Turning to `Nc1nc(Nc2ccccc2SSc2ccccc2Nc2nc(N)nc(-c3cccc(Cl)c3)n2)nc(-c2cccc(Cl)c2)n1` [MTF 322, N2,N2′-(disulfanediylbis(2,1-phenylene))bis(6-(3-chlorophenyl)-1,3,5-triazine-2,4-diamine)], the viability at 5 µM under setting [1] worked out at 57.4% and the viability at 5 µM under setting [2] was 12.1%. The viability at 10 µM by setting is: under setting [3], 26.9%; under setting [4], 5.7%.
On the same counts, the results for `Nc1nc(Nc2ccccc2SSc2ccccc2Nc2nc(N)nc(-c3cc4c(cc3Br)OCO4)n2)nc(-c2cc3c(cc2Br)OCO3)n1` [MTF 458, N2,N2′-(disulfanediylbis(2,1-phenylene))bis(6-(6-bromobenzo[d][1,3]dioxol-5-yl)-1,3,5-triazine-2,4-diamine)] are 58.7%, 86.8%, 46.5% and 104%.
On the same counts, the results for `Cc1csc(NC(=N)NC(=N)c2ccncc2)n1` [MTF 291, N—(N-(4-methylthiazol-2-yl)carbamimidoyl)isonicotinimidamide] are 100%, 95.2%, 100% and 41.3%.
Regarding `N=C(NC(=N)c1ccccc1Cl)Nc1nc2ccccc2s1` [MTF 244, N—(N-(benzo[d]thiazol-2-yl)carbamimidoyl)-2-chlorobenzimidamide], the viability at 5 µM is, setting by setting: under setting [1], 81.6%; under setting [2], 68%. Further, the viability at 10 µM was determined as 84.9% under setting [3] and 68.4% under setting [4].
On the same counts, the results for `Nc1nc(Nc2ccccc2O)nc(-c2cccc(Cl)c2)n1` [MTF 332, 2-((4-amino-6-(3-chlorophenyl)-1,3,5-triazin-2-yl)amino)phenol] are 122%, 87.6%, 104% and 65.4%.
For `Nc1nc(Nc2ccc(Cl)cc2SSc2cc(Cl)ccc2Nc2nc(N)nc(C(Cl)(Cl)Cl)n2)nc(C(Cl)(Cl)Cl)n1` [MTF 233, N2,N2′-(disulfanediylbis(4-chloro-2,1-phenylene))bis(6-(trichloromethyl)-1,3,5-triazine-2,4-diamine)] the same measures were 13.9%, 8.9%, 7% and 4.7%.
For `CC(=O)c1cccc(-c2nc(N)nc(Nc3ccccc3SSc3ccccc3Nc3nc(N)nc(-c4cccc(C(C)=O)c4)n3)n2)c1` [MTF 462, 1,1′-((((disulfanediylbis(2,1-phenylene))bis(azanediyl))bis(6-amino-1,3,5-triazine-4,2-diyl))bis(3,1-phenylene))bis(ethan-1-one)] the same measures were 101%, 80%, 4.8% and 44.1%.
Take `N#Cc1cccc(C(=N)NC(=N)Nc2nc3ccccc3s2)c1` [MTF 347, N—(N-(benzo[d]thiazol-2-yl)carbamimidoyl)-3-cyanobenzimidamide]: the viability at 5 µM is 26.9% under setting [1] and 6.6% under setting [2]. Further, the viability at 10 µM came out at 27.6% under setting [3] and 6.8% under setting [4].
